Data taken from patent US20180296542A1, “IMINOSUGARS FOR IMPROVING BONE MINERAL DENSITY IN BONE DISEASE” (Saint Louis University, priority 2015, published 2018).

Columns and labels:
[1] = system: TNSALP-null (Akp2^−/−) mice (WT, Het, KO); experiment: X-Rays of femurs (Example 2); format: in vivo; conditions: 400 and 1200 mg/kg Miglustat, FIGS. 13A-13I
Description: FIGS. 13A-13I are X-Rays of femurs from Wild-type mice administered PBS (WT-PBS; FIG. 13A), Heterozygous mice administered PBS (Het-PBS; FIG. 13B), Homozygous mice administered PBS (KO-PBS; FIG. 13C), Wild-type mice administered 400 mg/kg Miglustat (WT-400 mg/kg; FIG. 13D), Heterozygous mice administered 400 mg/kg Miglustat (Het-400 mg/kg; FIG. 13E), Homozygous mice administered 400 mg/kg Miglustat (KO-400 mg/kg; FIG. 13F), Wild-type mice administered 1200 mg/kg Miglustat (WT-1200 mg/kg; FIG. 13G), Heterozygous mice administered […] Miglustat (Het-1200 mg/kg; FIG. 13H), Homozygous mice administered […] Miglustat (KO-1200 mg/kg; FIG. 13I) showing increased bone at primary ossification centers (arrowheads).
Full-body ventral and side-view x-rays were taken after euthanizing the mice. The left anatomical legs were dissected to obtain the femoral bones. Femurs were then frozen before being placed in 10% formalin the day prior to microCT scanning. […]
Mice were obtained, bred and genotyped as described above. […] A total of 44 mice were analyzed (1 Akp2^−/− homozygous mouse was omitted in the PBS group). Mice were scanned using microCT and analyzed as described above. […]

[2] = system: TNSALP-null (Akp2^−/−) mice (WT, KO); experiment: MicroCT of trabecular bone in the lumbar vertebrae (Example 2); format: in vivo
Description: TNSALP-null (Akp2^−/−) mice served as an in vivo model of bone disease to analyze the effects of the iminosugar, Miglustat.
(§1) Mice were obtained, bred and genotyped as described above. Five mice of each genotype (Wild-type (WT), heterozygous (Het), and homozygous (KO)) were included in each treatment group (i.p. administration of PBS, 400 mg/kg Miglustat, and 1200 mg/kg Miglustat as described above). A total of 44 mice were analyzed (1 Akp2^−/− homozygous mouse was omitted in the PBS group). Mice were scanned using microCT and analyzed as described above. Cortical bone in the middle 20% of bone length from trochanter to distal condyles in the femur was scanned and cortical thickness and bone mineral density were obtained. Cortical thickness (Ct.Th, μm) was used as an indication of average thickness of cortical bone. Trabecular bone of the final 625 μm before the femoral growth plate was scanned.
In addition to microCT analysis of femurs, microCT analysis was performed on trabecular bone in the lumbar vertebrae. […] Bone volume fraction of vertebrae is the ratio of the segmented bone volume to the total volume of the region of interest.
As depicted in FIG. 30, trabecular thickness (Tb.Th, mm) increased at 400 mg/kg of Miglustat. The profile of trabecular thickness in spine without treatment is different than femoral trabecular thickness. Trabecular thickness is the mean thickness or trabeculae assessed using direct 3D methods described above.
The profile of trabecular separation in spine is different than in femoral. Trabecular separation is the mean distance between trabeculae assessed using direct 3D methods described above.
The profile and baseline number of trabeculae in spine was different than in femoral. Trabecular number is the measure of the average number of trabeculae per unit length.
As depicted in FIG. 33, structure model index decreased in homozygote mice treated with Miglustat. […] As discussed previously, SMI is an indicator of the structure of the trabeculae. SMI will be zero for parallel plates and 3 for cylindrical rods.
As depicted in FIG. 34, the connectivity density increased after treatment of homozygotes with high doses of Miglustat. As described above, connectivity density is a measure of the degree of connectivity of trabeculae normalized by total volume.
As depicted in FIG. 35, the degree of anisotropy increased with Miglustat meaning that treatment affected the orientation of trabeculae in the bone. Degree of anisotropy defines the direction and magnitude of the preferred orientation of trabeculae and uses the ratio between the maximum and minimum radii of the mean intercept length ellipsoid.

[3] = system: TNSALP-null (Akp2^−/−) mice (WT, Het, KO); experiment: Growth (percent change in weight) and toxicity in treated mice (Example 2); format: in vivo
Description: At the age of one month, mice were administered 100 μL injections of phosphate-buffered saline (PBS) with 0 mg/kg, 400 mg/kg, or 1200 mg/kg of Miglustat (250 mg/mL) to the peritoneal cavity for gradual diffusion of the drug. Mice were massed each day to adjust Miglustat dosages to body weight. Intraperitoneal injections (IP) continued daily for one month before mice were euthanized with CO2 at the age of two months. Mice were on a Pyridoxine Supplement Diet (“Vitamin B6 Diet”) to prevent seizures. NAPA NECTAR™ (Systems Engineering™) was provided every alternating day to prevent dehydration. Urine samples were collected once a week and blood samples were collected from cheek tissue at the beginning and end of treatment.
as §1, with “Cortical thickness (Ct.Th, μm) was used as an indication of average thickness of cortical bone. Trabecular bone of the final 625 μm before the femoral growth plate was scanned.” left out

patients with Type 1 GD = conditions: cited from earlier work

CCCCN1C[C@H](O)[C@@H](O)[C@H](O)[C@H]1CO [Miglustat, (2R,3R,4R,5S)-1-butyl-2-(hydroxymethyl)piperidine-3,4,5-triol]
Bone at primary ossification centers (X-Rays of femurs) [1]: increased | Trabecular thickness (Tb.Th), lumbar vertebrae ([2]; 400 mg/kg, FIG. 30): increased | Trabecular separation (Tb.Sp), lumbar vertebrae ([2]; FIG. 31): increased proportional to dose | Trabecular number (Tb.N), lumbar vertebrae ([2]; FIG. 32): did not change significantly | Degree of anisotropy (DA), lumbar vertebrae ([2]; FIG. 35): increased | Structure model index (SMI), lumbar vertebrae ([2]; homozygote mice, FIG. 33): decreased | Connectivity density (Conn. D), lumbar vertebrae ([2]; homozygotes, high doses, FIG. 34): increased | Overall bone volume (bone volume fraction), lumbar vertebrae ([2]; homozygotes, FIG. 29): not significantly increased | Toxicity ([3]; 400 mg/kg/day and 1,200 mg/kg/day delivered intraperitoneally): no toxicity was observed | Growth as measured by percent change in weight ([3]; high doses of Miglustat, particularly notable in WT and Het mice, FIG. 12): impeded growth | BMD (patients with Type 1 GD): increased | Bone pain (patients with Type 1 GD): alleviated
